Patent US20110098296A1, “Thiazole And Oxazole Kinase Inhibitors” (priority 2007, published 2011)

Tested on: SK-MEL-28 tumor cells
Assay: Method C: Cell Growth Inhibition Assay (CellTiter-Glo), SK-MEL-28
Assay type: cell-based
Conditions: Homo sapiens, SK-MEL-28, 72 h, 3 days, 4-parameter fit
In short: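 Cells plated at 500 cells/well, dosed next day with 10-point 1:3 dilution series (0.2% final DMSO) and grown 3 days at 37 °C, 5% CO2. CellTiter-Glo luminescence (total ATP) served as cell-number surrogate; inhibition relative to DMSO controls, IC50 interpolated by 4-parameter fit.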

Structure (SMILES) | IC50
CCNc1nc(-c2cccc(NC(=O)C3CC3)c2)c(-c2ccnc(Nc3ccc(OCCN4CCCC4)c(Cl)c3)n2)s1 [Example 63, N-{3-[5-{2-[(3-Chloro-4-{[2-(1-pyrrolidinyl)ethyl]oxy}phenyl)amino]-4-pyrimidinyl}-2-(ethylamino)-1,3-thiazol-4-yl]phenyl}cyclopropanecarboxamide] | > 1000 nM
Nc1nc(-c2cccc(C(=O)Nc3c(F)cccc3F)c2)c(-c2ccnc(Nc3cccc(CN4CCCC4)c3)n2)s1 [Example 77, 3-[2-Amino-5-(2-{[3-(1-pyrrolidinylmethyl)phenyl]amino}-4-pyrimidinyl)-1,3-thiazol-4-yl]-N-(2,6-difluorophenyl)benzamide] | > 1000 nM
Cc1nc(-c2cccc(NC(=O)c3c(F)cccc3F)c2)c(-c2ccnc(Nc3ccc(OC4CCN(C(=O)OCc5ccccc5)CC4)c(F)c3)n2)s1 [Example 106] | > 1000 nM

Now from value to compound:

IC50 | Structure (SMILES)
> 1000 nM | COc1ccc(Nc2nccc(-c3sc(N)nc3-c3cccc(NC(=O)c4c(F)cccc4F)c3)n2)cc1N1CCNCC1 [Example 18, N-[3-(2-Amino-5-{2-[(4-methoxy-3-piperaziN-1-ylphenyl)amino]pyrimidiN-4-yl}-1,3-thiazol-4-yl)phenyl]-2,6-difluorobenzamide]
> 1000 nM | Cc1nc(-c2cccc(NC(=O)c3c(F)cccc3F)c2)c(-c2ccnc(Nc3ccc(OCCN(C)C)c(Cl)c3)n2)s1 [Example 103, N-[3-(5-{2-[(3-Chloro-4-{[2-(dimethylamino)ethyl]oxy}phenyl)amino]-4-pyrimidinyl}-2-methyl-1,3-thiazol-4-yl)phenyl]-2,6-difluorobenzamide]
> 1000 nM | CCc1nc(-c2cccc(NC(=O)c3c(F)cccc3F)c2)c(-c2ccnc(Nc3cccc(CN4CCCC4)c3)n2)s1 [Example 115, N-{3-[2-Ethyl-5-(2-{[3-(1-pyrrolidinylmethyl)phenyl]amino}-4-pyrimidinyl)-1,3-thiazol-4-yl]phenyl}-2,6-difluorobenzamide]
> 1000 nM | Cc1nc(-c2cccc(NC(=O)c3cc(F)ccc3F)c2)c(-c2ccnc(Nc3ccc(OCCN(C)C)c(Cl)c3)n2)o1 [Example 142]
